In one assay the target is T1, RORβ LBD (Homo sapiens, UniProt Q92753).
T1 construct: made in house; host or cells: E. coli BL21DE3 GOLD, pET24a
T1 sequence (Q92753 201-452 isoform Q92753-1): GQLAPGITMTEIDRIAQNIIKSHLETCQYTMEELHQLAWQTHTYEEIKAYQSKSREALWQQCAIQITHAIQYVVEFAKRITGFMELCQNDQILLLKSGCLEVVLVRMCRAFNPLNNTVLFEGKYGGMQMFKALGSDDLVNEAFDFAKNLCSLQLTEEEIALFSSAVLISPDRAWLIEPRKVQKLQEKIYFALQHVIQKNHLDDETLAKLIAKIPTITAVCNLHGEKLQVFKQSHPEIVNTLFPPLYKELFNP
The experiment in a line: ThermoFluor binding assay, RORβ LBD. On the procedure:
Recombinant human RORγ, RORα and RORβ LBD proteins were prepared for ThermoFlour binding assay. The nucleotide sequences encoding the ligand binding domains (LBD) of human RORγ (Genbank accession no. NP005051, amino acid 237–497), RORα (Genbank accession no. NP599022, amino acid 304–556), and RORβ (Genbank accession no. NP008845, amino acid 201–452) were PCR-amplified and cloned into pET24a (Novagen) for expression in bacteria. All recombinant proteins contained an additional amino acid sequence of […] at the N-terminal of LBD. After transformation of the bacteria strain BL21DE3 GOLD (Agilent) with the plasmids, 10 to 20 L cultures were grown to 1 OD and recombinant protein expression was induced overnight at 16°C with 0.2mM isopropyl-beta-D-thiogalactopyranoside (IPTG) (Corning). […]. His-tagged proteins were collected with Ni-NTA resin (Qiagen) and purified with a HiTrap Q HP column (GE Life Sciences) eluted with a 40 CV gradient of 50-500mM NaCl.
The ThermoFluor® assay was established to measure the change in protein stability upon binding with compounds. 1-Anilinonaphthalene-8-Sulfonic Acid (1,8-ANS) (Invitrogen) was used as a fluorescent dye to label the test proteins. The assay was performed in polypropylene PCR microplates (TF-0384/k, Abgene) with a final assay of 3 μL reaction mixture per well overlaid with 1 μL silicone oil (Sigma-Aldrich). Assay plates were robotically loaded onto a thermostatically controlled PCR-type thermal block and then heated at a ramp-rate of 1°C/min. Fluorescence emission was initiated by continuous illumination with UV light (LC6, Hamamatsu) via fiber optic with a band-pass filter (380–400 nm) and detected with a CCD camera (Sensys, Roper Scientific) filtered to detect signal of 500 ± 25 nm. Reference wells contained recombinant LBD of RORγt, RORα or RORβ alone, and the assay conditions were as follows: 0.065 mg/mL RORγt LBD, 60 μM 1,8-ANS, 100 mM HEPES pH 7.0, 10 mM NaCl, 2.5 mM GSH, 0.002% Tween- 20; 0.1 mg/mL RORα, 70 μM 1,8-ANS, 25 mM HEPES pH 7.0, 50 mM NaCl, 0.001% Tween-20; 0.08 mg/mL RORβ, 60 μM 1,8-ANS, 50 mM HEPES pH 7.0, 100 mM NaCl, 0.001% Tween-20. All 3 assays were performed in the absence and in the presence of 100 μM co-activator peptide SRC1 ([…], England Peptide custom synthesis). The binding affinity of test compounds was estimated as described previously.

The next assay relates to SK+ Ca. The experiment in a line: Cerep selectivity panel. It is filed as binding.
The next assay relates to K Channel. The experiment in a line: Cerep selectivity panel. In kind it is binding.
The target in the next assay is T2, 5HT7 (h) (Homo sapiens, UniProt P34969).
T2 construct: purchased Cerep
The experiment in a line: Cerep selectivity panel. Conditions: for inhibition at 10 µM: read-out: % Inhibition at 10µM. It is filed as binding. In a few lines: (§1)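 Compounds are run at two concentrations, 1 µM and 10 µM, across a contract profiling panel covering 50 receptors, ion channels and transporters.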

Another assay concerns the target T3, A1 (h) (Homo sapiens, UniProt P30542).
T3 construct: purchased Cerep
T3 sequence (P30542 1-326): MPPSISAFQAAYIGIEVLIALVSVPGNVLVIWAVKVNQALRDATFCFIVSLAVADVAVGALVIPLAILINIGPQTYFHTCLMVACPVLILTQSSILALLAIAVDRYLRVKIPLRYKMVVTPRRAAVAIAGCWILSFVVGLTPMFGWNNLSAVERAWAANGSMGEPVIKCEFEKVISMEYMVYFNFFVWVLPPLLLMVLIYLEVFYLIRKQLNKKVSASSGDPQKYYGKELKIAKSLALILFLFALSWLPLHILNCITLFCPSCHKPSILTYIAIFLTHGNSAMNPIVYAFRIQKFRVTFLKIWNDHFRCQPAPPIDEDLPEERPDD
The assay can be described thus: Cerep selectivity panel. In kind it is binding. Conditions: for inhibition at 1 µM: read-out: % Inhibition at 1µM; for inhibition at 10 µM: read-out: % Inhibition at 10µM. In a few lines:
as §1

Another assay has as its target T4, ɣ1 (h) (Homo sapiens, UniProt P25929).
T4 construct: purchased Cerep
T4 sequence (P25929 1-384): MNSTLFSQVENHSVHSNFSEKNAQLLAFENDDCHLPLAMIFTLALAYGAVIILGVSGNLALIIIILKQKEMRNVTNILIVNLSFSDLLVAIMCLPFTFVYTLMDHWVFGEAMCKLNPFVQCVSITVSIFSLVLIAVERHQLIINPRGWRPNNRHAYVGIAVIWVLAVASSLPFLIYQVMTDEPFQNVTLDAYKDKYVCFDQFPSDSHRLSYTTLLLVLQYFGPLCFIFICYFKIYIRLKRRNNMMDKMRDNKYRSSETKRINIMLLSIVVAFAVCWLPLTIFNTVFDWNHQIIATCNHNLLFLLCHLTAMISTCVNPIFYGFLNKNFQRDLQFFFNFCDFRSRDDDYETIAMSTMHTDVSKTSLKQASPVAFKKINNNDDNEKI
The experiment in a line: Cerep selectivity panel. It is filed as binding. Conditions: for inhibition at 1 µM: read-out: % Inhibition at 1µM. In a few lines: as §1

The next assay concerns the target T5, CCR1 (h) (Homo sapiens, UniProt P32246).
T5 construct: purchased Cerep
The assay can be described thus: Cerep selectivity panel. It is filed as binding. In a few lines:
as §1

The mark [1] stands for this setting: recombinant human LBD, read-out: ThermoFlour Binding Assay (Kd, nM) RORβ.

Like-named read-outs stand apart in the source and are kept apart here.

T2 sequence (P34969 whole entry): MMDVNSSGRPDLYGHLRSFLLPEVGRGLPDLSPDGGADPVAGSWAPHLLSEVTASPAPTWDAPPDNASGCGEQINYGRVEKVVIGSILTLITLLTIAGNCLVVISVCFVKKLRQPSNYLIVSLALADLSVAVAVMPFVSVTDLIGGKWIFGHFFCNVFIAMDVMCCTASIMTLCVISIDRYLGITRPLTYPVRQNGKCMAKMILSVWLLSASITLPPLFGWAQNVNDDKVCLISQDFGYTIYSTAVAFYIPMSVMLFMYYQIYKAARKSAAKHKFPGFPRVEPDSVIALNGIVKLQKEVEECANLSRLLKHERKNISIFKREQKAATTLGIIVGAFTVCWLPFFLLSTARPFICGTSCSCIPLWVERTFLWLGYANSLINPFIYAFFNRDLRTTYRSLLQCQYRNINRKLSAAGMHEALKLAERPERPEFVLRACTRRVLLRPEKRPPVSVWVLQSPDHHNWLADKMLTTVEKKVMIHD
T5 sequence (P32246 whole entry): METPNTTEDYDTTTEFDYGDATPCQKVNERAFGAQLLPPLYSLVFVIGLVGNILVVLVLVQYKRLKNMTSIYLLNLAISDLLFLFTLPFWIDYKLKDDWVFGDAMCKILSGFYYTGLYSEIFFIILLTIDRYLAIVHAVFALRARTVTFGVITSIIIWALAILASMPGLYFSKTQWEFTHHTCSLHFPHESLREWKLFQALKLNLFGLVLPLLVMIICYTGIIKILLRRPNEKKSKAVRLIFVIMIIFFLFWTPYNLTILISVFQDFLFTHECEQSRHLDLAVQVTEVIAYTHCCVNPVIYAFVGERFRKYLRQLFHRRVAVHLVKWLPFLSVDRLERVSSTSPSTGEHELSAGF

For `COc1nc2ccc([C@@](O)(c3ccc(C)nc3C)c3cnnn3C)cc2c(Cl)c1Cc1ccc(C(F)(F)F)cc1` [compound A], the Kd on RORβ LBD (setting [1]) came out at 4940 nM. For the same compound, the figures for the “% Inhibition at 10µM” value in the assay on SK+ Ca and in the assay on K Channel were 1% and 9%, respectively. Besides, the inhibition at 1 µM at 5HT7 (h) (5HT7 (h), 1 µM) was found to be 4%; at A1 (h) (A1 (h), 1 µM), 19%; at ɣ1 (h) (ɣ1 (h), 1 µM), 5%. For the same compound, the inhibition at 10 µM came to 4% on 5HT7 (h) (5HT7 (h), 10 µM); 30% on A1 (h) (A1 (h), 10 µM); 5% at ɣ1 (h) (ɣ1 (h), 10 µM).

Consider `COc1nc2ccc([C@@](O)(c3ccccc3)C3CCN(C(C)=O)CC3)cc2c(Cl)c1Cc1ccc(-n2cccn2)cc1` [C], for which the Kd at RORβ LBD (setting [1]) is above 70000 nM. In the assay with SK+ Ca (1 µM), the “% Inhibition at 1µM” value is given as 1%. For the same compound, the “% Inhibition at 10µM” value in the assay on SK+ Ca was determined as 5%; with K Channel, 17%. The compound further showed an inhibition at 1 µM against CCR1 (h) (1 µM) of 17%.

At RORβ LBD, `COc1nc2ccc([C@](O)(c3ccc(Cl)cc3)c3cncn3C)cc2c(Cl)c1Cc1ccc(-n2cccn2)cc1` [B] yielded a Kd above 29900 nM.

`CN(C)c1nc2ccc(C(O)(c3ccncc3)c3cncn3C)cc2c(Cl)c1-c1ccccc1` (stereo not drawn) [compound D] yielded a Kd at RORβ LBD of 1240 nM. In addition, the inhibition at 10 µM was found to be 6% at CCR1 (h) (10 µM), 16% at 5HT7 (h) and 50% on A1 (h). Moreover, the inhibition at 1 µM at A1 (h) was determined as 18%; at ɣ1 (h), 16%.

The record behind these values is paper PMC5538713, “RORγt and RORα signature genes in human Th17 cells” (PLoS ONE, 2017).
